From patent US9102657B2, “Sodium salt of (R)-3-[6-amino-pyridin-3-yl]-2-(1-cyclohexyl-1H-imidazol-4-yl)-propionic acid” (Sanofi, priority 2011, dated 2015)

Key:
[1] = Dynamic Vapor Sorption (DVS), moisture sorption/desorption isotherms at 25° C.; type: physicochemical
Experimental: Moisture sorption/desorption isotherms were recorded on a SPS11-10μ from Projekt Messtechnik (Ulm, Germany). One cycle was run at 25° C., in which the sample was first stepwise decreased to 0% Room humidity (RH) and then the relative humidity was stepwise increased from 0 to 95% and the weight of the sample was measured. Typical total measurement times for both cycles were about 20 to 30 hours.

[2] = Chiral stability: solid stored at 40° C. and 75% RH, enantiomeric excess by chiral HPLC; conditions: for chemical / chiral stability (in words): elevated temperature and humidity, storage 40° C. and 75% RH, sodium salt dihydrate; for Enantiomeric excess: storage condition (B): solid, 40° C. and 75% RH, 4 weeks
Experimental: Enantiomeric excess was determined by chiral HPLC on a HPLC system containing a Quaternary HPLC pump (e.g. HP 1100), an auto sampler, an UV absorbance detector (e.g. DAD Agilent Technologies or other adequate HPLC-System) and a computer data acquisition system with suitable software (e.g. Dionex-Chromeleon). A Chirobiotic R, Supelco (Astec) (4.6×250 mm; 5 μm) column was used as stationary phase and a solution of 800 mL water, 1200 mL acetonitrile and 1.0 g ammoniumacetate was used as mobile phase. The flow rate was set to a value of 1.5 mL/minute and the oven temperature was set to 45° C. Detection was performed by absorbance of the compounds at 236 nm (UV) (bandwidth: 8 nm) and reference wavelength was set to 450 nm (bandwidth: 50 nm). Typical total run times were in the range of about 15 minutes. For sample preparation 50 mg of the substance were accurately weighed into a 10 mL volumetric flask and dissolved and diluted to volume with solvent (acetonitrile/water 50:50). For the HPLC analysis 5 μL of the sample were injected into the system.
Gradient used: Isograt (15 minutes 100% mobile phase A)

Nc1ccc(C[C@@H](C(=O)[O-])c2cn(C3CCCCC3)cn2)cn1.[Na+] [Example 3, (R)-3-[6-amino-pyridin-3-yl]-2-(1-cyclohexyl-1H-imidazol-4-yl)-propionic acid sodium salt dihydrate]
hygroscopicity, absorption or adsorption of water from the surrounding environment (in words) [1]: favorable reduced absorption or adsorption of water molecules
sorption and desorption isotherms (in words) ([1]; DVS 25° C., between 30% relative humidity and 0.4% relative humidity): almost the same (low water uptake or water desorption)
chemical / chiral stability (in words) ([2]; listed as sodium salt of (R)-3-[6-amino-pyridin-3-yl]-2-(1-cyclohexyl-1H-imidazol-4-yl)-pr): chemically stable
chemical / chiral stability (in words) [2]: remain stable

Nc1ccc(C[C@@H](C(=O)O)c2cn(C3CCCCC3)cn2)cn1 [Example 1, (R)-3-[6-amino-pyridin-3-yl]-2-(1-cyclohexyl-1H-imidazol-4-yl)-propionic acid]
Enantiomeric excess [2]: 91.6%
Enantiomeric excess ([2]; listed as (R)-3-[6-amino-pyridin-3-yl]-2-(1-cyclohexyl-1H-imidazol-4-yl)-propionic acid): 91.6%

Nc1ccc(CC(C(=O)O)c2cn(C3CCCCC3)cn2)cn1 (stereo not shown) [3-[6-amino-pyridin-3-yl]-2-(1-cyclohexyl-1H-imidazol-4-yl)-propionic acid]
hygroscopicity, absorption or adsorption of water from the surrounding environment (in words) [1]: hygroscopic
